Source: article PMC7126875 (Bioorganic & Medicinal Chemistry Letters, 2007)

What was measured:
[1] = system: SARS-CoV Frankfurt-1 strain; type: cell-based
[2] = system: SARS-CoV Frankfurt-1 strain; type: cell-based; remark: listed apart in the source
[3] = system: SARS-CoV Frankfurt-1 strain; details: cited from earlier work
[4] = system: SARS-CoV Frankfurt-1 strain; details: cited from earlier work; remark: listed apart in the source
Vero E6 cells = details: cited from earlier work

Row | SMILES | anti-SARS-CoV activity (in words) [2] | concentration required to decrease the virus yield to one-tenth of the control [3] | Antiviral index (50% toxic dose divided by 50% inhibitory dose) [4] | CC50 (Vero E6 cells) [µM] | other results
1 | OC[C@H]1O[C@@H](n2cnc3c(Cl)ncnc32)[C@H](O)[C@@H]1O [Compound 1] | – | – | – | – | concentration required to reduce the virus yield to one-hundredth of the control [1]: approximately 20 μM
2 | OC[C@H]1O[C@@H](n2cnc3c(Cl)ncnc32)C[C@@H]1O [Compound 6] | weak antiviral activity | – | – | – | –
3 | OC[C@@H]1C[C@@H](O)[C@H](n2cnc3c(Cl)ncnc32)O1 [Compound 7] | weak antiviral activity | – | – | – | –
4 | OCC1CC(n2cnc3c(Cl)ncnc32)C1CO (stereo not shown) [Compound 10] | almost no activity | – | – | – | –
5 | NC(=O)c1ncn([C@@H]2O[C@H](CO)[C@@H](O)[C@H]2O)c1O [Mizoribine] | – | approximately 35 μM | >52 | > 700 | –
6 | NC(=O)c1ncn([C@@H]2O[C@H](CO)[C@@H](O)[C@H]2O)n1 [Ribavirin] | – | ~200 µM | >10 | > 850 | –
